Results reported in PMC4102531, “Pharmacologic Inhibition of Sphingomyelin Synthase (SMS) Activity Reduces Apolipoprotein-B Secretion from Hepatocytes and Attenuates Endotoxin-Mediated Macrophage Inflammation” (PLoS ONE, 2014).

Biological target: T1, SMS2 (sphingomyelin synthase 2) (Mus musculus, UniProt Q9D4B1)
T1 construct: gene Sgms2; native enzyme in liver homogenate of SMS1 KO mice
T1 sequence (Q9D4B1 1-365): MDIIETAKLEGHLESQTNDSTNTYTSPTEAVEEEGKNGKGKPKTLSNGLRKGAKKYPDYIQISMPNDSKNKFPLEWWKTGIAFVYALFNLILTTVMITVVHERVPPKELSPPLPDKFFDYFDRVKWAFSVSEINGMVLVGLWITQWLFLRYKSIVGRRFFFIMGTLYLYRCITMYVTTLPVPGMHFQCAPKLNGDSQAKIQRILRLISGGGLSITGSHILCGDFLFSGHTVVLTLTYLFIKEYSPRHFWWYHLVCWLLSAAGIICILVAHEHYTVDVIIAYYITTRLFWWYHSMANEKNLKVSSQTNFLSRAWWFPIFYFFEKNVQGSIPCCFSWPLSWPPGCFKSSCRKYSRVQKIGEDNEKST
Test: SMS activity assay in SMS1 KO mouse liver homogenate
Format: cell-based

N#CC(Nc1ccccc1)c1ccccc1OCc1ccccc1 (stereo not shown) [Dy105, 2-(2-(benzyloxy)phenyl)-2-(phenylamino) acetonitrile]
SMS activity assay in SMS1 KO mouse liver homogenate: we found the compound can inhibit SMS2 but not SMS1 activity (Fig. 3A and B) in the liver
